Source: ChEMBL document CHEMBL5325470, “Design, synthesis and mechanism studies of dual EZH2/BRD4 inhibitors for cancer therapy” (Bioorg Med Chem, 2023)
Activity calls are given as the source filed them.

What was measured:
HCT-116 [1] = experiment: Antiproliferative activity against human HCT-116 cells incubated for 72 hrs by MTT assay; assay type: functional, cell-based; conditions: HCT-116, 72 h
MDA-MB-231 [2] = experiment: Antiproliferative activity against human MDA-MB-231 cells incubated for 72 hrs by MTT assay; assay type: functional, cell-based; conditions: MDA-MB-231, 72 h
BT-549 = experiment: Antiproliferative activity against human BT-549 cells incubated for 72 hrs by MTT assay; assay type: functional, cell-based; conditions: BT-549, 72 h
A549 [3] = experiment: Antiproliferative activity against human A549 cells incubated for 72 hrs by MTT assay; assay type: functional, cell-based; conditions: A549, 72 h
[4] = molecular target: T1, Bromodomain-containing protein 4 (Homo sapiens, UniProt O60885); experiment: Inhibition of BRD4 BD1 (unknown origin) incubated for 15 mins by TR-FRET method
[5] = Binding affinity to recombinant PRC2 complex (unknown origin) incubated for 3 hrs in presence of SAM; parameters: species or system Homo sapiens
[6] = molecular target: T2, Histone-lysine N-methyltransferase EZH2 (Homo sapiens, UniProt Q15910); experiment: Inhibition of EZH2 (unknown origin)
Target sequence in this assay (Q15910 whole entry): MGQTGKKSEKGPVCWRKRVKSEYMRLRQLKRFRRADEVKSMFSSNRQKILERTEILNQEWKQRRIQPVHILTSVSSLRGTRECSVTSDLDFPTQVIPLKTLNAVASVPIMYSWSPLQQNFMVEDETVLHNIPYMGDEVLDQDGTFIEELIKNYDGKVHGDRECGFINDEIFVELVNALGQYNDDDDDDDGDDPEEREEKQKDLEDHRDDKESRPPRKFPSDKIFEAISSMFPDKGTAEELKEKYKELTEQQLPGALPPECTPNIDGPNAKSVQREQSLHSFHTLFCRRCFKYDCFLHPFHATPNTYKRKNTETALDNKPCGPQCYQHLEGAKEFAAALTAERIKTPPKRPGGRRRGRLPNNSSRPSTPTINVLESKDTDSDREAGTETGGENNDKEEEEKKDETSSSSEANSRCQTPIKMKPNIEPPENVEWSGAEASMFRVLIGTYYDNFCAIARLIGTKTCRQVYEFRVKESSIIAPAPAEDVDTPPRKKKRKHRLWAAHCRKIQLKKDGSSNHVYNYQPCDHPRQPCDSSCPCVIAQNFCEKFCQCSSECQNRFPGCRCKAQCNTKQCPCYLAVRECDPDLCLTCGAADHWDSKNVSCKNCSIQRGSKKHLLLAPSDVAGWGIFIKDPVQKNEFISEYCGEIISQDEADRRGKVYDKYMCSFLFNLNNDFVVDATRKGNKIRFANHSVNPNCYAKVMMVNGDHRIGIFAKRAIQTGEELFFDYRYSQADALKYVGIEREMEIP

HCT-116 [7] = experiment: Inhibition of PRC2 in human HCT-116 cells assessed as reduction in H3K27me3 level at 2 to 8 uM incubated for 48 hrs by Western blotting analysis; assay type: cell-based; conditions: dose 2-8 µM
A549 [8] = experiment: Inhibition of PRC2 in human A549 cells assessed as reduction in H3K27me3 level at 2 to 8 uM incubated for 48 hrs by Western blotting analysis; assay type: cell-based; conditions: dose 2-8 µM
MDA-MB-231 [9] = experiment: Inhibition of PRC2 in human MDA-MB-231 cells assessed as reduction in H3K27me3 level at 2 to 8 uM incubated for 48 hrs by Western blotting analysis; assay type: cell-based; conditions: dose 2-8 µM
[10] = molecular target: T1, Bromodomain-containing protein 4; experiment: Inhibition of BRD4 in human A549 cells assessed as reduction in c-Myc level at 2 to 8 uM incubated for 48 hrs by Western blotting analysis; assay type: cell-based; conditions: dose 2-8 µM
[11] = molecular target: T1, Bromodomain-containing protein 4; experiment: Inhibition of BRD4 in human HCT-116 cells assessed as reduction in c-Myc level at 2 to 8 uM incubated for 48 hrs by Western blotting analysis; assay type: cell-based; conditions: dose 2-8 µM
[12] = molecular target: T1, Bromodomain-containing protein 4; experiment: Inhibition of BRD4 in human MDA-MB-231 cells assessed as reduction in c-Myc level at 2 to 8 uM incubated for 48 hrs by Western blotting analysis; assay type: cell-based; conditions: dose 2-8 µM
[13] = molecular target: T1, Bromodomain-containing protein 4; experiment: Inhibition of BRD4 in human HCT-116 cells assessed as increase in p21 level at 2 to 8 uM incubated for 48 hrs by Western blotting analysis; assay type: cell-based; conditions: dose 2-8 µM
[14] = molecular target: T1, Bromodomain-containing protein 4; experiment: Inhibition of BRD4 in human A549 cells assessed as increase in p21 level at 2 to 8 uM incubated for 48 hrs by Western blotting analysis; assay type: cell-based; conditions: dose 2-8 µM
[15] = molecular target: T1, Bromodomain-containing protein 4; experiment: Inhibition of BRD4 in human MDA-MB-231 cells assessed as increase in p21 level at 2 to 8 uM incubated for 48 hrs by Western blotting analysis; assay type: cell-based; conditions: dose 2-8 µM
[16] = molecular target: T2, Histone-lysine N-methyltransferase EZH2; experiment: Inhibition of EZH2 in human HCT-116 cells assessed as decrease in H3K27ac level at 2 to 8 uM incubated for 48 hrs by Western blotting analysis; assay type: cell-based; conditions: dose 2-8 µM
Target sequence in this assay (Q15910 whole entry, looked up): as the sequence (Q15910 whole entry) above

[17] = molecular target: T2, Histone-lysine N-methyltransferase EZH2; experiment: Inhibition of EZH2 in human A549 cells assessed as decrease in H3K27ac level at 2 to 8 uM incubated for 48 hrs by Western blotting analysis; assay type: cell-based; conditions: dose 2-8 µM
Target sequence in this assay (Q15910 whole entry, looked up): as the sequence (Q15910 whole entry) above

[18] = molecular target: T2, Histone-lysine N-methyltransferase EZH2; experiment: Inhibition of EZH2 in human MDA-MB-231 cells assessed as decrease in H3K27ac level at 2 to 8 uM incubated for 48 hrs by Western blotting analysis; assay type: cell-based; conditions: dose 2-8 µM
Target sequence in this assay (Q15910 whole entry, looked up): as the sequence (Q15910 whole entry) above

A549 [19] = experiment: Induction of apoptosis in human A549 cells assessed as reduction in Bcl-2 protein expression at 2 to 8 uM incubated for 48 hrs by Western blotting analysis; assay type: functional, cell-based; conditions: dose 2-8 µM
A549 [20] = experiment: Induction of apoptosis in human A549 cells assessed as […] in Bax protein expression at 2 to 8 uM incubated for 48 hrs by Western blotting analysis; assay type: functional, cell-based; conditions: dose 2-8 µM
[21] = molecular target: T2, Histone-lysine N-methyltransferase EZH2; experiment: Inhibition of EZH2 in human HCT-116 cells assessed as decrease in H3K27ac level at 12 uM incubated for 48 hrs by Western blotting analysis; assay type: cell-based
Target sequence in this assay (Q15910 whole entry, looked up): as the sequence (Q15910 whole entry) above

[22] = molecular target: T2, Histone-lysine N-methyltransferase EZH2; experiment: Inhibition of EZH2 in human MDA-MB-231 cells assessed as decrease in H3K27ac level at 12 uM incubated for 48 hrs by Western blotting analysis; assay type: cell-based
Target sequence in this assay (Q15910 whole entry, looked up): as the sequence (Q15910 whole entry) above

[23] = molecular target: T2, Histone-lysine N-methyltransferase EZH2; experiment: Inhibition of EZH2 in human A549 cells assessed as decrease in H3K27ac level at 18 uM incubated for 48 hrs by Western blotting analysis; assay type: cell-based
Target sequence in this assay (Q15910 whole entry, looked up): as the sequence (Q15910 whole entry) above

HCT-116 [24] = experiment: Antiproliferative activity against human HCT-116 cells assessed as reduction in number of colonies incubated for 48 hrs with replacement of normal media every day for 14 days; assay type: functional, cell-based; conditions: dose 2-8 µM
HCT-116 [25] = experiment: Induction of apoptosis in human HCT-116 cells at 2 to 8 uM incubated for 48 hrs by Annexin V-PE/7-AAD staining based flow cytometry analysis; assay type: functional, cell-based; conditions: dose 2-8 µM
Cell membrane = experiment: Induction of mitochondrial membrane potential loss in human HCT-116 cells assessed as decrease in red fluorescence incubated for 48 hrs by flow cytometry analysis; conditions: Mitochondria, dose 2-8 µM
HCT-116 [26] = experiment: Induction of cell cycle arrest in human HCT-116 cells assessed as accumulation of cells at G0/G1 phase at 2 to 8 uM incubated for 48 hrs by RNAase-A and PI staining based flow cytometry analysis; assay type: functional; conditions: dose 2-8 µM

Cc1cc(C)c(CNC(=O)c2cc(NCCCCCNC(=O)C[C@@H]3N=C(c4ccc(Cl)cc4)c4c(sc(C)c4C)-n4c(C)nnc43)cc3c2cnn3C(C)C)c(=O)[nH]1
0.082 µM: IC50 [6]
3.97 µM: IC50 (BT-549)
2.31 µM: IC50 (MDA-MB-231 [2])
1.86 µM: IC50 (HCT-116 [1])
0.134 µM: IC50 [4]
0.18 µM: Kd [5]
active: inhibition (HCT-116 [7]) | inhibition (A549 [8]) | inhibition (MDA-MB-231 [9]) | inhibition [10] | inhibition [11] | inhibition [12] | inhibition [13] | inhibition [14] | inhibition [15] | inhibition [16] | inhibition [17] | inhibition [18] | Activity (A549 [19]) | Activity (A549 [20]) | Activity (HCT-116 [24]) Dose-Dependent Effect | Activity (HCT-116 [25]) | Activity (Cell membrane) Dose-Dependent Effect | Activity (HCT-116 [26])
4.63 µM: IC50 (A549 [3])
inactive: inhibition [21] | inhibition [22] | inhibition [23]
